Results from patent US20130289083A1, “IDO Inhibitors” (priority 2007, published 2013).
Read-outs that look alike come from different tables or passages of the source.

Assays:
murine IDO = biological target: T1, murine IDO (Mus musculus, UniProt P28776); assay: Cell based IDO/kynurenine assay in 293-T-Rex cells expressing murine IDO; settings: cells expressing murine IDO, read-out: mIDO EC50
T1 construct: expressed in transfected cells; host or cells: 293-T-REx cells (Invitrogen), doxycycline-inducible CMV-tet promoter
T1 sequence (P28776 whole entry): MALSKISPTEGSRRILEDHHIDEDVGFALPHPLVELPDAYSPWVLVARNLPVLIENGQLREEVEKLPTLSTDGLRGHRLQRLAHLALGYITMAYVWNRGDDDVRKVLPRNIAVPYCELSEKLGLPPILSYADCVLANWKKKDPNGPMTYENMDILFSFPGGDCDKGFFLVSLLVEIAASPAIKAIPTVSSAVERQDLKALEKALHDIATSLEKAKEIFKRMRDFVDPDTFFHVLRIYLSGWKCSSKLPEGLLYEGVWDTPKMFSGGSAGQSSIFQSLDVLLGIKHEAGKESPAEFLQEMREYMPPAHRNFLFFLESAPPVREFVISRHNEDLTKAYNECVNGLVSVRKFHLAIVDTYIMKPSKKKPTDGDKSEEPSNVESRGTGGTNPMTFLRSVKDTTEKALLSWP
Description: (§1) Transfected cells were selected in DBZ medium (DMEM, 10% FBS, 1× Penicillin+Streptomycin, 2 mM L-glutamine, 5 μg/mL blasticidin and 25 μg/ml Zeocin) at 37° C. with a 5% CO2 in air atmosphere. Individual clones were isolated by limiting dilution cloning from these populations.
The cells incubated in Neutral medium serve as negative control of the assay. The cells incubated in Induction medium and without inhibitor serve as the positive control of the assay. The incubation is carried out for 16 h at 37° C. in a cell culture incubator. 200 μL of medium are transferred to U-bottom polypropylene 96-well plates containing 25 μL of 30% TCA, incubated 30 minutes at 60° C. and centrifuged at 3400 g for 5 minutes. 150 μL of the clear supernatant is transferred to a polystyrene 96-well plate containing 50 μL of 4% (w/v) of p-dimethylaminobenzaldehyde in acetic acid, incubated for 10 min. Kynurenine concentration is determined by measuring the absorbance at 480 nm.

[1] = biological target: purified human IDO protein (Homo sapiens, UniProt P14902); assay: Enzymatic IDO assay (kynurenine production, absorbance 480 nm); settings: enzymatic activity
Chain of purified human IDO protein (P14902 whole entry P110S/E119G): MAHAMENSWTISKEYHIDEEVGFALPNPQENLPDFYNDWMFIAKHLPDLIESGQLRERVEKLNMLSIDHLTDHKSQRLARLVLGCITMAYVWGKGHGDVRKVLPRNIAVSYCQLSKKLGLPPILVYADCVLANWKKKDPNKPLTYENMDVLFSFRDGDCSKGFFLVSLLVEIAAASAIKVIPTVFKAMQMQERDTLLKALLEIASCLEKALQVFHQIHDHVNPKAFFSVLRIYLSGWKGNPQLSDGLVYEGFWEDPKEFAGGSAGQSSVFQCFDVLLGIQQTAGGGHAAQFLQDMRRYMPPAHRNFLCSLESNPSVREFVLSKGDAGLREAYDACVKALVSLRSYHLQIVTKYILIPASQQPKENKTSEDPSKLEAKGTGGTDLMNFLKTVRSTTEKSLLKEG

human IDO = human IDO (Homo sapiens, UniProt P14902); assay: Cell based IDO/kynurenine assay in IDO-293-T-Rex cells; settings: kynurenine production, read-out: hIDO EC50
Chain of human IDO (P14902 whole entry): as the sequence (P14902 whole entry P110S/E119G) above, with S110P, G119E counted along it
Description: 293-T-REx™ cells (Invitrogen) constitutively express a tet operator binding repressor protein and are maintained in DMEM, 10% FBS, 1× Penicillin+Streptomycin, 2 mM L-glutamine, 5 μg/mL blasticidin at 37° C. with a 5% CO2 in air atmosphere and typically split prior to confluency. Cells were passed by splitting the culture 1/10—by removing media by aspiration, washing 1× with PBS, incubating with 0.25% trypsin/EDTA until the cells detach, disbursing the cells in fresh growth media, and plating at 1/10 dilutions in fresh growth media. For long term cryopreservation, cells are detached from the plate as described above, collected by centrifugation, resuspended in freeze medium (growth medium, 10% DMSO), stored in 1.8 mL cyropreservation vials (˜2−5×10^6 cells per vial), in liquid nitrogen vapor storage tanks.
as §1, with “IDOl-expressing 293-T-Rex™ cell lines were generated by stable transfection of plasmid pcDNA-tetO-IDO expressing human IDO or murine IDO under the control of the doxycycline-inducible CMV-tet promoter. Transfected” for “Transfected”
[…]. The cells incubated in Neutral medium serve as negative control of the assay. The cells incubated in Induction medium and without inhibitor serve as the positive control of the assay. The incubation is carried out for 16 h at 37° C. in a cell culture incubator. 200 μL of medium are transferred to U-bottom polypropylene 96-well plates containing 25 μL of 30% TCA, incubated 30 minutes at 60° C. and centrifuged at 3400 g for 5 minutes. 150 μL of the clear supernatant is transferred to a polystyrene 96-well plate containing 50 μL of 4% (w/v) of p-dimethylaminobenzaldehyde in acetic acid, incubated for 10 min. Kynurenine concentration is determined by measuring the absorbance at 480 nm.
The conditions of the assay were as described in the examples.

[2] = hIDO IC50, Table 15, recombinant human IDO
[3] = Table 15, 293T cells expressing human IDO
[4] = hIDO IC50, Table 16, recombinant human IDO
[5] = Table 16, 293T cells expressing human IDO
[6] = hIDO IC50, recombinant human IDO, values reported in ranges
[7] = 293T cell line stably expressing human IDO, values reported in ranges
[8] = read-out: hIDO IC50, recombinant human IDO, values reported in ranges

Row | SMILES | EC50 (murine IDO; Table 15) | IC50 [1, 2] | EC50 (human IDO; [3]) | EC50 (human IDO; [7]) | also measured
1 | COc1ccc(CON)cc1 [compound 1815, O-(4-methoxybenzyl)hydroxylamine] |  |  |  |  | EC50 (murine IDO; Table 16): 10 to 100 µM; IC50 [1, 4]: 10 to 100 µM; EC50 (human IDO; [5]): < 10 µM
2 | NOCc1ccc(C(F)(F)F)cc1 [compound 934, O-(4-(trifluoromethyl)benzyl)hydroxylamine] |  |  |  |  | EC50 (murine IDO; Table 16): < 10 µM; IC50 [1, 4]: < 10 µM; EC50 (human IDO; [5]): < 10 µM
3 | NOCCCc1ccccc1 [compound 1693, O-(3-phenylpropyl)hydroxylamine] |  |  |  |  | EC50 (murine IDO; Table 16): 10 to 100 µM; IC50 [1, 4]: 10 to 100 µM; EC50 (human IDO; [5]): < 10 µM
4 | COC(=O)C(ON)c1ccccc1 (stereo not drawn) [compound 1886, methyl 2-(aminooxy)-2-phenylacetate] | < 10 µM | < 10 µM | < 10 µM |  | 
5 | NOCc1cc(Cl)ccc1-c1cncnc1 [compound 1923, O-(5-chloro-2-(pyrimidin-5-yl)benzyl)hydroxylamine] | < 10 µM | < 10 µM | < 10 µM |  | 
6 | NOCc1ccccc1-c1ccncc1 [compound 1889, O-(2-(pyridin-4-yl)benzyl)hydroxylamine] | 100 to 1000 µM | 10 to 100 µM | < 10 µM |  | 
7 | NOCc1cccc(NCc2ccccc2)c1 [compound 1828, 3-(aminooxymethyl)-N-benzylaniline] | 100 to 1000 µM | 100 to 1000 µM | 10 to 100 µM |  | 
8 | NOC1CCCCO1 (stereo not drawn) [compound 1669, O-(tetrahydro-2H-pyran-2-yl)hydroxylamine] |  |  |  |  | EC50 (murine IDO; Table 16): < 10 µM; IC50 [1, 4]: 10 to 100 µM; EC50 (human IDO; [5]): < 10 µM
9 | NOCc1ccccc1-c1ccc(Cl)cc1 [compound 1879, O-((4′-chlorobiphenyl-2-yl)methyl)hydroxylamine] | 10 to 100 µM | < 10 µM | < 10 µM |  | 
10 | NOCc1cccc(N)c1 [compound 1824, 3-(aminooxymethyl)aniline] | 10 to 100 µM | 10 to 100 µM | < 10 µM |  | 
11 | NOCc1c(F)c(F)c(F)c(F)c1F [compound 1667, O-(perfluorobenzyl)hydroxylamine] |  |  |  |  | EC50 (murine IDO; Table 16): 10 to 100 µM; IC50 [1, 4]: 10 to 100 µM; EC50 (human IDO; [5]): < 10 µM
12 | NOCCOc1ccccc1 [compound 1679, O-(2-phenoxyethyl)hydroxylamine] |  |  |  |  | EC50 (murine IDO; Table 16): < 10 µM; IC50 [1, 4]: < 10 µM; EC50 (human IDO; [5]): < 10 µM
13 | NOCc1cccc(I)c1 [compound 1816, O-(3-iodobenzyl)hydroxylamine] |  |  |  |  | EC50 (murine IDO; Table 16): 10 to 100 µM; IC50 [1, 4]: < 10 µM; EC50 (human IDO; [5]): < 10 µM
14 | NOCc1cc(Cl)cc(-c2ccc(Cl)cc2)c1 [compound 1893, O-((4′,5-dichlorobiphenyl-3-yl)methyl)hydroxylamine] | 10 to 100 µM | < 10 µM | < 10 µM |  | 
15 | NOC(c1ccccc1)C1CCCCC1 (stereo not drawn) [compound 1920, O-(cyclohexyl(phenyl)methyl)hydroxylamine] | 10 to 100 µM | < 10 µM | < 10 µM |  | 
16 | NOCc1ccccc1C(F)(F)F [compound 1677, O-(2-(trifluoromethyl)benzyl)hydroxylamine] |  |  |  |  | EC50 (murine IDO; Table 16): 10 to 100 µM; IC50 [1, 4]: < 10 µM; EC50 (human IDO; [5]): < 10 µM
17 | NOCc1csc2ccc(Cl)cc12 [compound 1743, O-((5-chlorobenzo[b]thiophen-3-yl)methyl)hydroxylamine] | 10 to 100 µM | < 10 µM | < 10 µM |  | 
18 | NOCc1cccc(Br)c1 [compound 1656, O-(3-bromobenzyl)hydroxylamine] |  |  |  |  | EC50 (murine IDO; Table 16): < 10 µM; IC50 [1, 4]: < 10 µM; EC50 (human IDO; [5]): < 10 µM
19 | NOCc1ccc(CON)cc1 [compound 1492, O,O′-(1,4-phenylenebis(methylene))bis(hydroxylamine)] |  |  |  |  | EC50 (murine IDO; Table 16): 10 to 100 µM; IC50 [1, 4]: 10 to 100 µM; EC50 (human IDO; [5]): < 10 µM
20 | O=C1CSC(=S)N1Cc1ccccc1 [compound 79, 3-Benzyl-2-thioxothiazolidin-4-one] |  |  |  | < 20 µM | IC50 [1, 6]: 20 to 100 µM
21 | O=C(Cc1ccc2ccccc2c1)NO [compound 827, N-hydroxy-2-(naphthalen-2-yl)acetamide] |  |  |  | 20 to 100 µM | IC50 [1, 6]: 100 to 1000 µM
22 | CSC(=S)NCCc1c[nH]c2c(Cl)cc(Cl)cc12 [compound 42] |  |  |  | 100 to 1000 µM | IC50 [1, 8]: 100 to 1000 µM
23 | S=C(NCCc1noc2ccccc12)SCc1ccc2ccccc2c1 [compound 58] |  |  |  | 20 to 100 µM | IC50 [1, 8]: 100 to 1000 µM
24 | S=C(NCCc1c[nH]c2ccccc12)SCCc1ccc2c(c1)OCCO2 [compound 53, 2-(2,3-Dihydrobenzo[b][1,4]dioxin-6-yl)ethyl 2-(1H-indol-3-yl)ethyl-carbamodithioate] |  |  |  | 20 to 100 µM | IC50 [1, 6]: 100 to 1000 µM
25 | S=C(NC1CSc2ccccc2C1)SCc1ccc2ccccc2c1 (stereo not drawn) [compound 64, naphhalen-2-ylmethyl thiochroman-3-ylcarbamodithioate] |  |  |  | 20 to 100 µM | IC50 [1, 8]: 100 to 1000 µM
26 | NOC(COCc1ccccc1)c1ccccc1 (stereo not drawn) [compound 1933, O-(2-(benzyloxy)-1-phenylethyl)hydroxylamine] |  | < 10 µM | < 10 µM |  | 

More lines, main results first:

Row | EC50 (murine IDO; Table 15) | IC50 [1, 2] | EC50 (human IDO; [3]) | EC50 (human IDO; [7]) | SMILES | also measured
27 | 10 to 100 µM | < 10 µM | < 10 µM |  | NOCc1ccccc1-c1ccccc1 [compound 1827, O-(biphenyl-2-ylmethyl)hydroxylamine] | 
28 | < 10 µM | < 10 µM | < 10 µM |  | COc1ccc(OC)c(CON)c1 [compound 1771, O-(2,5-dimethoxybenzyl)hydroxylamine] | 
29 | 100 to 1000 µM | < 10 µM | < 10 µM |  | COC(=O)CCC(ON)c1ccccc1 (stereo not drawn) [compound 1880, methyl 4-(aminooxy)-4-phenylbutanoate] | 
30 | 10 to 100 µM | < 10 µM | < 10 µM |  | NOCc1cccc(-c2ccc(Cl)cc2)c1 [compound 1878, O-((4′-chlorobiphenyl-3-yl)methyl)hydroxylamine] | 
31 | 10 to 100 µM | 10 to 100 µM | < 10 µM |  | Cc1ccc(-c2cccc(CON)c2)cc1 [compound 1881, O-((4′-methylbiphenyl-3-yl)methyl)hydroxylamine] | 
32 |  |  |  | 20 to 100 µM | NC(CSC(=S)NCc1ccccc1)C(=O)O (stereo not drawn) [compound 138, 2-amino-3-(benzylcarbamothioylthio)-propanoic acid] | IC50 [1, 6]: 100 to 1000 µM
33 |  |  |  | 100 to 1000 µM | Cn1[nH]c(=O)c(=O)nc1SCc1ccc2ccccc2c1 [compound 682, 2-Methyl-3-(naphthalen-2-ylmethylthio)-1,2-dihydro-1,2,4-triazine-5,6-dione] | IC50 [1, 6]: 100 to 1000 µM
34 |  |  |  | 20 to 100 µM | Cc1ccc(CCSC(=S)NCCc2c[nH]c3ccccc23)cc1 [compound 9, 4-Methylphenethyl 2-(1H-indol-3-yl)ethylcarbamodithioate] | IC50 [1, 6]: 100 to 1000 µM
35 |  |  |  | 100 to 1000 µM | S=C(NCCc1c[nH]c2ccccc12)SCCc1cccc(Cl)c1 [compound 8, 3-Chlorophenethyl 2-(1H-indol-3-yl)ethylcarbamodithioate] | IC50 [1, 6]: 100 to 1000 µM
36 |  |  |  | 100 to 1000 µM | Oc1cccc2ccccc12 [compound 168, naphthalen-1-ol] | IC50 [1, 6]: 100 to 1000 µM
37 |  |  |  | 20 to 100 µM | O=C1CSC(=S)N1Cc1ccc2ccccc2c1 [compound 830, 3-(Naphthalen-2-ylmethyl)-2-thioxothiazolidin-4-one] | IC50 [1, 6]: 20 to 100 µM
38 |  | < 10 µM | < 10 µM |  | NOC(CCC1CCCCC1)c1ccccc1 (stereo not drawn) [compound 1938, O-(3-cyclohexyl-1-phenylpropyl)hydroxylamine] | 
39 |  |  |  | 1000 to 10000 µM | CC1=C(CN2C(=O)c3ccccc3C2=O)C(=O)c2ccccc2C1=O [compound 464, 2-((3-methyl-1,4-dioxo-1,4-dihydronaphthalen-2-yl)methyl)isoindoline-3-dione] | IC50 [1, 6]: 20 to 100 µM
